Measured values as given in patent US20230228764A1, “METHOD FOR THE DIAGNOSIS AND TREATMENT OF ESSENTIAL PRIMARY HYPERTENSION” (Universiteit Maastricht, priority 2020, published 2023).
“Also recorded” adds a separate entry of the source.

Assays:
[1] = test system: femoral arteries of aged NOX5 KI mice; assay: Acetylcholine (Ach)-induced relaxation of isolated femoral arteries, wire myograph; conditions: for Reversal of impaired Ach-induced relaxation by antioxidant: femoral arteries of aged KI mice contracted with 10 μM phenylephrine, Ach 10 μM
Text: (§1) To test the effect of endothelial NOX5 on endothelium-dependent, NO-cGMP mediated relaxation, arterial segments were pre-contracted by either depolarization (K^+), α1-adrenergic activation (phenylephrine), or endothelin-1; vaso-relaxation was then induced by acetylcholine (Ach) the classical endothelium-derived relaxing factor stimulant. […] When comparing ours to previous studies, the Ach-induced relaxation of saphenous arteries of both mice groups seemed attenuated. There are two possible explanations for this discrepancy. First, we have used very old mice and other studies used young mice.
After mice were sacrificed, thoracic aortae, femoral and saphenous arteries were dissected free from perivascular adipose tissue and mounted in a wire myograph (DMT, Aarhus, DK). The organ chamber was filled with Krebs-Ringer bicarbonate-buffered salt solution (KRB) that was continuously aerated with 95% O2/5% CO2 and maintained at 37° C. Passive stretch procedure was performed to mimic the physiologically relevant internal lumen diameter as previously described. Arterial contractile and relaxing responses were recorded at lumen diameters corresponding to a distending pressure of 100 mmHg in thoracic aorta and femoral artery and at 90% of this diameter in the resistance-sized saphenous artery. […] The diameter tension relationships were constructed according to the law of Laplace for a cylindrical tube: P=T/R (with P for transmural pressure, T for wall tension and R for the lumen radius of the tube). Consequently, wall stiffness can be determined equally by recording 1) changes in tension in response to imposed changes in radius (wire myography) or 2) changes in radius in response to changes in transmural pressure (pressure myography). Here we used the former approach because it has a higher throughput than the latter. Stress-strain relationships and even better “incremental elastic (Young's) modulus” (which require additional recording of wall thickness) only come into play to discriminate between structural and material property contributions to changes in arterial stiffness. Part of the isolated thoracic aorta was studied in the absence and part in the continuous presence of 10 μM indomethacin to inhibit production of prostaglandins that can act as endothelium-derived vasoactive factors in this vessel. The vessels were tested for their contractile response to 40 mM K^+, concentration-response curves of phenylephrine (0.01 to 100 μM) and endothelin-1 (1-256 nM) followed by acetylcholine (Ach) (0.01 to 100 μM), PAPA/NO (0.01-10 μM) or Bay60-2770 (0.01-10 μM)-induced relaxations. The wall tension of the vessel segment was continuously recorded with LabChart Pro (AD Instruments, Oxford, UK).

[2] = test system: elevated blood pressure induced by NOS uncoupling; conditions: preclinical, refs [85, 86]; cited from earlier work
[3] = test system: femoral arteries of aged WT and KI mice; assay: Endothelium-independent relaxations induced by apo-sGC activator, wire myograph; conditions: BAY 60-2770 0.01-10 μM
Protocol: (§2) To test which component of NO-cGMP signalling was most likely affected, we tested an uncoupling effect on endothelial NO synthase or an oxidative damage of the NO receptor, soluble guanylate cyclase yielding oxidized or heme-free apo-sGC [51, 52]. To test for sGC/apo-sGC, relaxing responses to the NO donor compound and sGC stimulator, PAPA/NO (0.01-10 μM), and to the aposGC activator, BAY 60-2770 (0.01-10 μM), were analyzed.
(§3) After mice were sacrificed, thoracic aortae, femoral and saphenous arteries were dissected free from perivascular adipose tissue and mounted in a wire myograph (DMT, Aarhus, DK). The organ chamber was filled with Krebs-Ringer bicarbonate-buffered salt solution (KRB) that was continuously aerated with 95% O2/5% CO2 and maintained at 37° C. […] Arterial contractile and relaxing responses were recorded at lumen diameters corresponding to a distending pressure of 100 mmHg in thoracic aorta and femoral artery and at 90% of this diameter in the resistance-sized saphenous artery. […] Consequently, wall stiffness can be determined equally by recording 1) changes in tension in response to imposed changes in radius (wire myography) or 2) changes in radius in response to changes in transmural pressure (pressure myography). […] The wall tension of the vessel segment was continuously recorded with LabChart Pro (AD Instruments, Oxford, UK).

[4] = test system: thoracic aorta of the KI and WT mice; assay: Agonist-induced contractile responses, wire myograph; conditions: 10 μM indomethacin
Text: We next tested whether, alternatively, chronic changes in the underlying arterial smooth muscle layer could have contributed to the observed blood pressure and vasomotor phenotypes in aged NOX5 KI mice. Contractile responses to K^+ and the sensitivity and maximal responsiveness to phenylephrine and endothelin-1 did, however, not differ between KI and WT mice in all arterial segments (FIGS. 10 A-I).
as §3

[5] = test system: thoracic aorta of aged KI and WT mice; assay: Ach-induced relaxation of isolated thoracic aorta, wire myograph; conditions: thoracic aorta contracted with 258 nM endothelin-1, 100 μM L-NAME
Text: as §1
as §3, with “DK).” for “DK). The organ chamber was filled with Krebs-Ringer bicarbonate-buffered salt solution (KRB) that was continuously aerated with 95% O2/5% CO2 and maintained at 37° C.”

[6] = test system: saphenous arteries of aged KI and WT mice; assay: Ach-induced relaxation of isolated saphenous arteries, wire myograph; conditions: saphenous arteries contracted with endothelin-1; 100 μM L-NAME; both types of mice
Text: as §1
as §3, with “DK).” for “DK). The organ chamber was filled with Krebs-Ringer bicarbonate-buffered salt solution (KRB) that was continuously aerated with 95% O2/5% CO2 and maintained at 37° C.”

[7] = test system: femoral arteries of aged NOX5 KI mice; assay: Measurement of superoxide formation: DHE staining; conditions: pre-treatment with 500 μM L-NAME for 30 min at 37° C.
Protocol: Superoxide was measured in femoral arteries using the florescence dye dihydroethidium (DHE) (Thermo Scientific Technology, The Netherlands). Frozen femoral arteries cryo-sections were fixated in 4% paraformaldehyde (PFA) in PBS and then incubated with 2 μM DHE for 30 minutes at 37° C. After three washing steps with PBS, slices were incubated with DAPI (Sigma-Aldrich, The Netherlands) […] for 10 min. Sections were washed in PBS and then mounted using a Dako Fluorescence Mounting Medium ([…], Agilent Technologies). Immunofluorescent signals were viewed using a Leica DM13000 B fluorescence microscope. Some arteries were pre-treated with 500 μM L-NAME for 30 min at 37° C. before performing the DHE staining.

[8] = test system: femoral arteries, saphenous arteries and thoracic aortae of aged WT and KI mice; assay: Endothelium-independent relaxations induced by NO donor, wire myograph; conditions: PAPA/NO 0.01-10 μM, thoracic aortae with/without indomethacin
Protocol: as §2, §3

hypertensive patients = conditions: cited from earlier work

C[C@H](O)C(=O)C1=Nc2c(nc(N)[nH]c2=O)NC1 [sepiapterin]
Ach-induced relaxation after pre-treatment ([1]; femoral arteries of aged KI mice pre-contracted with phenylephrine, sepiapterin 100 μM): improved relaxation in KI; also recorded: greatly improved and became indistinguishable from those in WT | Effect on elevated blood pressure [2]: lower elevated blood pressure

O=C(O)CCCCN(CCc1cc(F)ccc1OCc1ccc(-c2ccc(C(F)(F)F)cc2)cc1)Cc1ccc(C(=O)O)cc1 [BAY 60-2770]
Relaxing response, WT vs KI mice [3]: Neither the PAPA/NO (FIGS. 13 A-C) nor the BAY 60-2770 response (FIG. 11 D) differed | Relaxing response, WT vs KI mice ([3]; listed as Bay60-2770): did not differ

COc1ccc2c(c1)c(CC(=O)O)c(C)n2C(=O)c1ccc(Cl)cc1 [indomethacin]
Blunting of agonist-induced contractile responses, KI vs WT mice [4]: similar

COC(=O)[C@@H](N)CCCNC(=N)N[N+](=O)[O-] [L-NAME]
Reversal of the relaxing effects of Ach ([1]; femoral artery contracted with 258 nM endothelin-1, 100 μM L-NAME, KI and WT mice): reversed | Reversal of the relaxing effects of Ach [5]: reversed | Reversal of the relaxing effects of Ach [6]: did not modify the relaxing effects of Ach | Superoxide formation (DHE staining), increase in KI vs WT [7]: this increase was inhibited

CCCN(CCCN)/[N+]([O-])=N/O [PAPA/NO]
Relaxing response, WT vs KI mice [8]: Neither the PAPA/NO (FIGS. 13 A-C) nor the BAY 60-2770 response (FIG. 11 D) differed | Relaxing response, WT vs KI mice ([8]; listed as PAPA NO): did not differ

Nc1nc2ncc(CNc3ccc(C(=O)N[C@@H](CCC(=O)O)C(=O)O)cc3)nc2c(=O)[nH]1 [folic acid]
Effect on elevated blood pressure (hypertensive patients; clinical, by improving endothelial function, refs [88, 89]): clinically effective to reduce elevated blood pressure | Risk of cardiovascular and cerebrovascular events (hypertensive patients; hypertensive patients, alone or in combination with anti-hypertensives, refs [90-92]): reduces the risk of cardiovascular and cerebrovascular events

CC1(C)CC(O)CC(C)(C)N1[O] [tempol]
Reversal of impaired Ach-induced relaxation by antioxidant ([1]; 100 μM tempol): not reversed; also recorded: Neither 10 μM N-acetylcysteine nor 100 μM tempol, however, were effective

CC(=O)N[C@@H](CS)C(=O)O [N-acetylcysteine]
Reversal of impaired Ach-induced relaxation by antioxidant ([1]; 10 μM N-acetylcysteine): not reversed; also recorded: Neither 10 μM N-acetylcysteine nor 100 μM tempol, however, were effective
